Where two headings read alike, the source gives them in different places.
Columns and labels:
[1] = system: eight TNBC cell lines (BT-549, CAL-148, HCC1806, HCC38, HCC70, MDA-MB-436, MDA-MB-453, MDA-MB-468); assay: Monotherapy drug screen, mean across the TNBC cell lines; conditions: for area under the dose response curve (AUC), mean ± SD / cytotoxic effect at the highest dose: TNBC cell lines; for cytotoxic effect at the highest dose: by GRmax; for IC50: read-out: GR50 (mean ± SD)
Summary of the method: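 Cells seeded at 4.0 × 10^3–7.5 × 10^3/well, grown 24 h, then drug-treated 24 h with matched solvent-vehicle controls per concentration; resazurin absorbance read-out, viability normalised to vehicle after background subtraction, t = 0 untreated cells for GR. AUC, IC50, GR50, GRmax via GRmetrics; combinations predicted by IDACombo, synergy scored with SynergyFinder.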

MDA-MB-453 cells = assay: Resazurin-based cell viability assay, monotherapy drug screen; parameters: species or system human; AUC: scale not given here; conditions: MDA-MB-453; for AUC: area under the dose response curve, 24 h; for GRmax: drug efficacy at highest tested dose (<0 cytotoxic, 0 cytostatic, >0 partial growth inhibition)
Summary of the method: (§1)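 Cells were seeded at the highest density (tested 1000-16000 cells/well) giving linear growth between days 1 and 3, keeping them in exponential phase over the ~52 h experiment. Viability was read after 4 h at 37 °C with 0.2 mg/ml resazurin added at 10% of medium volume; ex 560/em 615 nm.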

MDA-MB-436 cells = assay: as above; parameters: species or system human; AUC: scale not given here; conditions: MDA-MB-436; for AUC: area under the dose response curve, 24 h; for GRmax: drug efficacy at highest tested dose (<0 cytotoxic, 0 cytostatic, >0 partial growth inhibition)
Summary of the method: as §1

HCC38 cells = assay: as above; parameters: species or system human; AUC: scale not given here; conditions: HCC38; for AUC: area under the dose response curve, 24 h; for GRmax: drug efficacy at highest tested dose (<0 cytotoxic, 0 cytostatic, >0 partial growth inhibition)
Summary of the method: as §1

HCC1806 cells = assay: as above; parameters: species or system human; AUC: scale not given here; conditions: HCC1806; for AUC: area under the dose response curve, 24 h; for GRmax: drug efficacy at highest tested dose (<0 cytotoxic, 0 cytostatic, >0 partial growth inhibition)
Summary of the method: as §1

HCC70 cells = assay: as above; parameters: species or system human; AUC: scale not given here; conditions: HCC70; for AUC: area under the dose response curve, 24 h; for GRmax: drug efficacy at highest tested dose (<0 cytotoxic, 0 cytostatic, >0 partial growth inhibition)
Summary of the method: as §1

MCF-10A cells = assay: as above; parameters: species or system human; AUC: scale not given here; conditions: for AUC: area under the dose response curve, 24 h; for GRmax: drug efficacy at highest tested dose (<0 cytotoxic, 0 cytostatic, >0 partial growth inhibition)
Summary of the method: as §1

BT-549 cells = assay: as above; parameters: species or system human; AUC: scale not given here; conditions: BT-549; for AUC: area under the dose response curve, 24 h; for GRmax: drug efficacy at highest tested dose (<0 cytotoxic, 0 cytostatic, >0 partial growth inhibition)
Summary of the method: as §1

MDA-MB-468 cells = assay: as above; parameters: species or system human; AUC: scale not given here; conditions: MDA-MB-468; for AUC: area under the dose response curve, 24 h; for GRmax: drug efficacy at highest tested dose (<0 cytotoxic, 0 cytostatic, >0 partial growth inhibition)
Summary of the method: as §1

MCF-7 cells = assay: as above; parameters: species or system human; AUC: scale not given here; conditions: MCF-7; for AUC: area under the dose response curve, 24 h; for GRmax: drug efficacy at highest tested dose (<0 cytotoxic, 0 cytostatic, >0 partial growth inhibition)
Summary of the method: as §1

[2] = growth rate inhibition concentration at GR(c) = 0.5, 24 h, read-out: GR50 (the source's name)
[3] = 24 h drug treatment, read-out: IC50
[4] = Homo sapiens, 24 h drug treatment, read-out: IC50
[5] = Homo sapiens, growth rate inhibition concentration at GR(c) = 0.5, 24 h, read-out: GR50 (the source's name)
[6] = Homo sapiens, MCF7, growth rate inhibition concentration at GR(c) = 0.5, 24 h, read-out: GR50 (the source's name)

CC[C@H](C)[C@H](NC(=O)[C@H]([C@@H](C)CC)N(C)C(C)=O)C(=O)N[C@H](C(=O)N[C@@H](CC(C)C)C(=O)[C@@]1(C)CO1)[C@@H](C)O [Epoxomicin]
area under the dose response curve (AUC), mean ± SD ([1]; 24 h): 0.69 ± 0.10 | cytotoxic effect at the highest dose [1]: lowest cytotoxic effects | IC50 ([1]; across the TNBC cell lines, 24 h drug treatment): 220 ± 230 nM | AUC (MDA-MB-453 cells): 0.70 | GRmax (MDA-MB-453 cells): 0.32 | IC50 (MDA-MB-453 cells; [2]): 15 nM | AUC (MDA-MB-436 cells): 0.77 | GRmax (MDA-MB-436 cells): 0.37 | IC50 (MDA-MB-436 cells; [2]): 320 nM | IC50 (HCC38 cells; [3]): 54 nM | AUC (HCC38 cells): 0.47 | GRmax (HCC38 cells): −0.74 | IC50 (HCC38 cells; [2]): 44 nM | IC50 (HCC1806 cells; [3]): 470 nM | AUC (HCC1806 cells): 0.73 | GRmax (HCC1806 cells): 0.34 | IC50 (HCC1806 cells; [2]): 290 nM | IC50 (HCC70 cells; [3]): 980 nM | AUC (HCC70 cells): 0.72 | GRmax (HCC70 cells): −0.52 | IC50 (HCC70 cells; [2]): 140 nM | IC50 (MCF-10A cells; [3]): 88 nM | AUC (MCF-10A cells): 0.58 | GRmax (MCF-10A cells): −0.05 | IC50 (MCF-10A cells; [2]): 95 nM | AUC (BT-549 cells): 0.73 | GRmax (BT-549 cells): 0.38 | IC50 (BT-549 cells; [2]): 130 nM | IC50 (MDA-MB-468 cells; [3]): 110 nM | AUC (MDA-MB-468 cells): 0.65 | GRmax (MDA-MB-468 cells): 0.01 | IC50 (MDA-MB-468 cells; [2]): 51 nM | IC50 (MCF-7 cells; [3]): 1200 nM | AUC (MCF-7 cells): 0.74 | GRmax (MCF-7 cells): 0.42 | IC50 (MCF-7 cells; [2]): 75 nM

CC(C)C[C@H](NC(=O)CNC(=O)c1cc(Cl)ccc1Cl)B(O)O [MLN 2238, MLN-2238]
IC50 ([1]; Homo sapiens, 24 h): 680 ± 1000 nM | area under the dose response curve (AUC), mean ± SD ([1]; 24 h): 0.76 ± 0.10 | IC50 (MDA-MB-453 cells; [4]): 4300 nM | IC50 (MDA-MB-453 cells; [5]): 640 nM | AUC (MDA-MB-453 cells): 0.81 | IC50 (MDA-MB-436 cells; [5]): 160 nM | AUC (MDA-MB-436 cells): 0.88 | GRmax (MDA-MB-436 cells): −0.78 | AUC (HCC38 cells): 0.59 | GRmax (HCC38 cells): −0.99 | IC50 (HCC38 cells; [4]): 110 nM | IC50 (HCC38 cells; [5]): 71 nM | AUC (HCC1806 cells): 0.75 | GRmax (HCC1806 cells): 0.39 | IC50 (HCC1806 cells; [4]): 3000 nM | IC50 (HCC1806 cells; [5]): 3300 nM | AUC (HCC70 cells): 0.78 | GRmax (HCC70 cells): −0.36 | IC50 (HCC70 cells; [4]): 2700 nM | IC50 (HCC70 cells; [5]): 740 nM | IC50 (MCF-10A cells; [4]): 410 nM | IC50 (MCF-10A cells; [5]): 76 nM | AUC (MCF-10A cells): 0.72 | AUC (BT-549 cells): 0.75 | GRmax (BT-549 cells): 0.40 | IC50 (BT-549 cells; [5]): 140 nM | IC50 (MDA-MB-468 cells; [4]): 240 nM | IC50 (MDA-MB-468 cells; [5]): 55 nM | AUC (MDA-MB-468 cells): 0.67 | IC50 (MCF-7 cells; [6]): 340 nM | AUC (MCF-7 cells): 0.87 | GRmax (MCF-7 cells): −0.29

CC(C)C[C@H](NC(=O)CNC(=O)c1cc(Cl)ccc1Cl)B1OC(=O)C(CC(=O)O)(CC(=O)O)O1 [MLN 9708, MLN-9708]
area under the dose response curve (AUC), mean ± SD ([1]; 24 h): 0.79 ± 0.10 | IC50 (MDA-MB-453 cells; [5]): 1800 nM | AUC (MDA-MB-453 cells): 0.88 | IC50 (MDA-MB-436 cells; [5]): 110 nM | AUC (MDA-MB-436 cells): 0.86 | GRmax (MDA-MB-436 cells): −0.82 | AUC (HCC38 cells): 0.59 | GRmax (HCC38 cells): −0.99 | IC50 (HCC38 cells; [4]): 130 nM | IC50 (HCC38 cells; [5]): 69 nM | AUC (HCC1806 cells): 0.79 | GRmax (HCC1806 cells): 0.47 | IC50 (HCC1806 cells; [5]): 4300 nM | AUC (HCC70 cells): 0.82 | GRmax (HCC70 cells): −0.34 | IC50 (HCC70 cells; [4]): 4800 nM | IC50 (HCC70 cells; [5]): 1200 nM | IC50 (MCF-10A cells; [4]): 380 nM | IC50 (MCF-10A cells; [5]): 70 nM | AUC (MCF-10A cells): 0.72 | AUC (BT-549 cells): 0.80 | GRmax (BT-549 cells): 0.43 | IC50 (BT-549 cells; [5]): 840 nM | IC50 (MDA-MB-468 cells; [4]): 800 nM | IC50 (MDA-MB-468 cells; [5]): 100 nM | AUC (MDA-MB-468 cells): 0.72 | IC50 (MCF-7 cells; [6]): 270 nM | AUC (MCF-7 cells): 0.87 | GRmax (MCF-7 cells): −0.48

[NH2][Pt]1([NH2])[O]CC(=O)[O]1 [Nedaplatin]
area under the dose response curve (AUC), mean ± SD ([1]; 24 h): 0.68 ± 0.10 | cytotoxic effect at the highest dose [1]: cytotoxic | AUC (MDA-MB-453 cells): 0.86 | GRmax (MDA-MB-453 cells): 0.34 | IC50 (MDA-MB-453 cells; [2]): 410 nM | IC50 (MDA-MB-436 cells; [3]): 230 nM | AUC (MDA-MB-436 cells): 0.76 | GRmax (MDA-MB-436 cells): 0.22 | IC50 (MDA-MB-436 cells; [2]): 130 nM | IC50 (HCC38 cells; [3]): 93 nM | AUC (HCC38 cells): 0.62 | GRmax (HCC38 cells): −0.58 | IC50 (HCC38 cells; [2]): 54 nM | IC50 (HCC1806 cells; [3]): 150 nM | AUC (HCC1806 cells): 0.66 | GRmax (HCC1806 cells): −0.38 | IC50 (HCC1806 cells; [2]): 120 nM | IC50 (HCC70 cells; [3]): 46 nM | AUC (HCC70 cells): 0.50 | GRmax (HCC70 cells): −0.83 | IC50 (HCC70 cells; [2]): 300 nM | IC50 (MCF-10A cells; [3]): 75 nM | AUC (MCF-10A cells): 0.57 | GRmax (MCF-10A cells): −0.40 | IC50 (MCF-10A cells; [2]): 74 nM | IC50 (BT-549 cells; [3]): 150 nM | AUC (BT-549 cells): 0.66 | GRmax (BT-549 cells): −0.02 | IC50 (BT-549 cells; [2]): 81 nM | IC50 (MDA-MB-468 cells; [3]): 67 nM | AUC (MDA-MB-468 cells): 0.61 | GRmax (MDA-MB-468 cells): −0.38 | AUC (MCF-7 cells): 0.82 | GRmax (MCF-7 cells): −0.57 | IC50 (MCF-7 cells; [2]): 75 nM
